Data: paper PMC11811597, “Phenomics‐Based Discovery of Novel Orthosteric Choline Kinase Inhibitors” (Angewandte Chemie (International Ed. in English), 2025)

What was measured:
[1] = target: T1, TUBD1 (Homo sapiens, UniProt Q9UJT1); experiment: Competitive affinity-based chemoproteomics (UNC0965 matrix), MCF7 lysate; type: binding; details: 20 μM competitor, n=2
T1 construct: endogenous in cells; host or cells: MCF7 whole cell lysate
Experimental: (§1) A-366 and UNC0638 were purchased from Tocris. ARIAD and V-11-07-11 were purchased from Wuxi Apptec. UNC0737 and UNC0965 were synthesised as previously described.[1] […]
(§2) #35050061). Cells were maintained at 37 °C in a humidified 5% CO2 atmosphere. […]
(§3) Chemical Proteomics Drug Pulldown
(§4) For lysate generation MCF7 cells were grown until approximately 80% confluency before being pelleted and washed with PBS. Cell pellets were subsequently lysed by addition of Buffer A (50 mM Tris pH 7.5, 0. 8% v/v NP-40, 5% v/v glycerol, 1.5 mM MgCl2, 100 mM NaCl, 25 mM NaF, 1 mM Na3VO4, 1 mM PMSF, 1 mM DTT, 10 μg mL−1 TLCK, 1 μg mL−1 Leupeptin, 1 μg mL−1 Aprotinin, 1 μg mL−1 soy bean trypsin) as previously described.[2]
(§5) For each pulldown condition, UNC0965 was coupled to 100 μL of UltraLink Immobilized Streptavidin Plus bead slurry (50% in isopropanol, GE Healthcare) to generate the affinity matrix as previously […]
(§6) described.[2] Lysates were precleared with bead slurry (100 μL) for 30 min at 4 °C and then treated with UNC0638 or UNC0737 (20 μM) or DMSO control for 30 min at 4 °C followed by incubation with affinity matrix for 2 h at 4 °C. Affinity matrices were washed with buffer A (5 mL) and proteins eluted with 100 μL of 2x Laemmli sample buffer, 100 mM DTT, in PBS and heating for 10 min at 90 °C.
(§7) Eluents (70 µL) were diluted in 0.1 M Tris (pH 7.8) to 200 µL, reduced with 5 mM DTT for 30 min at RT, and alkylated with 20 mM iodoacetamide for 30 min at RT in the dark. Proteins were precipitated by sequential addition of MeOH (600 µL), CHCl3 (150 µL) and H2O (450 µL), pelleted (17,000 × g, 5 min), washed with further MeOH (2 × 600 µL), and re-pelleted. Air dried pellets were resuspended in 50 μL 6 M urea (pH 7.8) by vortexing and then diluted with 250 μL H2O before adding 1 µg trypsin for overnight incubation at 37 °C. The digests were acidified with FA (1% v/v final concentration), desalted using SOLA HRP SPE Cartridges (Thermo Fisher), eluted with 69% v/v MeCN, 0.1% v/v FA in H2O (600 μL) and dried in vacuo. Dried peptides were stored at -20 °C before resuspension in 2% v/v MeCN, 0.1% v/v FA in H2O (20 μL) for LC-MS/MS analysis.
(§8) LC-MS/MS Data Acquisition
(§9) Digested samples were analysed by nano-UPLC–MS/MS using a Dionex Ultimate 3000 nano UPLC fitted with an EASY spray column (75 μm × 500 mm, 2 μm particle size, Thermo Scientific), coupled to an Orbitrap Q Exactive instrument. A 60 min gradient of 0.1% (v/v) formic acid in 5 % (v/v) DMSO to 0.1% (v/v) formic acid with 35% (v/v) acetonitrile in 5 % (v/v) DMSO at a flow rate of 250 nL min−1 was used. The instrument was operated in a data-dependant mode, with survey scans acquired at a resolution of 70,000 at 200 m/z and the 15 most abundant precursors selected for HCD fragmentation with an AGC target of […] ions.
(§10) Raw data was processed using MaxQuant[3] version 2.0.1.0 and the reference complete human proteome FASTA file (UniProt, downloaded 05.08.21). Label Free Quantification (LFQ) and Match Between Runs were selected; Cysteine carbamidomethylation was selected as a fixed modification, and methionine oxidation and asparagine deamidation as variable modifications. Default settings for identification and quantification were used. Specifically, a minimum peptide length of 7, a maximum of 2 missed cleavage sites, and a maximum of 5 labelled amino acids per peptide were allowed.
(§11) Through selection of the ‘trypsin/P’ general setting, peptide bond cleavage at arginine or lysine (followed by any amino acid) was considered during in silico digest of the reference proteome. The allowed precursor and fragment ion mass tolerances were 4.5 ppm and 20 ppm, respectively. Peptides and proteins were identified utilizing a 0.01 false discovery rate, with “unique and razor peptides” […]
(§12) mode selected for both identification and quantification of proteins (razor peptides are uniquely assigned to protein groups and not to individual proteins). At least 1 razor + unique peptides were required for valid quantification. […]

[2] = target: T2, PRCP (Homo sapiens, UniProt P42785); experiment: as above; type: binding; details: 20 μM competitor, n=2
T2 construct: endogenous in cells; host or cells: MCF7 whole cell lysate
T2 sequence (P42785 46-496): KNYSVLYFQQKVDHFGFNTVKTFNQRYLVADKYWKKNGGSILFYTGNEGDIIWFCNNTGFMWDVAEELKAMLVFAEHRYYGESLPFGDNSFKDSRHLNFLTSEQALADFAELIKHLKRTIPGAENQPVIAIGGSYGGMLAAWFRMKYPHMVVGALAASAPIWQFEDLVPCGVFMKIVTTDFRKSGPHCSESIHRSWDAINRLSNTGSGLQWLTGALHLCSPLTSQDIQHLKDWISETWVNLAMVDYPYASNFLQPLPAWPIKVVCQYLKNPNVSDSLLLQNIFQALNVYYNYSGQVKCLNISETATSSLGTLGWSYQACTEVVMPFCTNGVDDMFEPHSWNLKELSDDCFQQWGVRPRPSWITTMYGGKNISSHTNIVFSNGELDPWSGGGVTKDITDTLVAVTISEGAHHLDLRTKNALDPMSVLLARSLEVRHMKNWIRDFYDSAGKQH
Experimental: as §1, §2, §3, §4, §5, §6, §7, §8, §9, §10, §11, §12

[3] = target: T3, EHMT1 (GLP) (Homo sapiens, UniProt Q9H9B1); experiment: as above; type: binding; details: MCF7 lysates, 20 μM competitor
T3 construct: endogenous in cells; host or cells: MCF7 whole cell lysate
T3 sequence (Q9H9B1 whole entry): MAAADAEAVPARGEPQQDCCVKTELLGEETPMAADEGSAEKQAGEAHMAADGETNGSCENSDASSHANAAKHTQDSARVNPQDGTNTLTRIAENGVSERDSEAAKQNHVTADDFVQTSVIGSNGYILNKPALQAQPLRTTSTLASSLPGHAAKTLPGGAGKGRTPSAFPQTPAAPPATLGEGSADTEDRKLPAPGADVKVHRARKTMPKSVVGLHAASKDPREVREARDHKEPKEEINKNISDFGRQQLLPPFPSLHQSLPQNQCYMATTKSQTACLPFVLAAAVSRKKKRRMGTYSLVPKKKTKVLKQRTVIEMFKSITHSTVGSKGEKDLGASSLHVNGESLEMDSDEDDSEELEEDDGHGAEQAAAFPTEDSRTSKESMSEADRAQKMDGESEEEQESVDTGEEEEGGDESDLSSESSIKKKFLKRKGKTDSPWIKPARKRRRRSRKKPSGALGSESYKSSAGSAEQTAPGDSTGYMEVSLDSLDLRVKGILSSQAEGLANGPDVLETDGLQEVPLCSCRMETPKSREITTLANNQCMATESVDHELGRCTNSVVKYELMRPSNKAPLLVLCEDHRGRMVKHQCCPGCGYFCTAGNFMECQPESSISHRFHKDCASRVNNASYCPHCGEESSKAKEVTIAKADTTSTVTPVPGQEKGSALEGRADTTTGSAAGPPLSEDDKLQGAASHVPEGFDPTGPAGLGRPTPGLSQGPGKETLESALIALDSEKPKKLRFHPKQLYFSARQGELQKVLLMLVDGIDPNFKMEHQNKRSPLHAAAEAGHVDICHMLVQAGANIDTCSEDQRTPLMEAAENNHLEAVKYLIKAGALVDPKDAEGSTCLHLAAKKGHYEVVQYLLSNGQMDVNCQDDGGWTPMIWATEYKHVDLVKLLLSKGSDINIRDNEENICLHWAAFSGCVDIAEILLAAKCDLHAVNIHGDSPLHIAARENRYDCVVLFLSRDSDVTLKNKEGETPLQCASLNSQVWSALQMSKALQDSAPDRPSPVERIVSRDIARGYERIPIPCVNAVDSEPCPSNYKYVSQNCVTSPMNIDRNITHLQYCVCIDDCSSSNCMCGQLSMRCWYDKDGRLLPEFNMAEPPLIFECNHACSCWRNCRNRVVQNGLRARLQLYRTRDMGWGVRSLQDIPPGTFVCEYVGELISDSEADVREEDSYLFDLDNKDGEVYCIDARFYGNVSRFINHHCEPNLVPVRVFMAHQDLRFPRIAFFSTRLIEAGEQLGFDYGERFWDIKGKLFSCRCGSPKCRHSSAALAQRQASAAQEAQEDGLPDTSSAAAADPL
Experimental: as §1, §2, §3, §4, §5, §6, §7, §8, §9, §10, §11, §12

[4] = target: CHKA (Homo sapiens, UniProt P35790); experiment: PK/LDH coupled choline kinase enzyme assay; type: biochemical; set-up: host or cells: E. coli BL21(DE3); details: concentration-dependent
CHKA, sequence (P35790 75-457 limits assumed): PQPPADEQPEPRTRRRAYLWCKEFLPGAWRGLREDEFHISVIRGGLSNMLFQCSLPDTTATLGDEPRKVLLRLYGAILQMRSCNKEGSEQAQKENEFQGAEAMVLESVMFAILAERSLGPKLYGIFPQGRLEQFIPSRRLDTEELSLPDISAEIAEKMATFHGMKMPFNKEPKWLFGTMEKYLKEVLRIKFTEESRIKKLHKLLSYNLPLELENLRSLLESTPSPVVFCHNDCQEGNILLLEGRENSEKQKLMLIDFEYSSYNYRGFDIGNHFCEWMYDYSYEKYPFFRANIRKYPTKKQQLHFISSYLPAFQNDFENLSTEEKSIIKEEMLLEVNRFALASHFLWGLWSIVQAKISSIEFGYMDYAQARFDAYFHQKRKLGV
Experimental: carried out using REFMAC[9] and COOT,[10] and concluded when no improvements resulted for Rfree and Rwork values, and when density maps indicated no further changes were justified.
Choline Coupled Enzymatic Assay
CHKA (120 ng, 24 µg/ml) was arrayed (5 µL) into a 96 well semi-skirted real time PCR plate. 4-fold dilution series and vehicle controls (0.5% DMSO) were prepared in a separate plate. A further DMSO control was included for use with a no protein well control. The dilutions (17 µL) were mixed with reaction buffer (136 µL, see Table below) and arrayed (45 µL) onto the CHKA-containing PCR plate.
After mixing, bubbles were removed by centrifugation (1000 × g, 1 min) and absorbance read at 340 nm on a PheraSTAR FSX (BMG Labtech), reading every minute for 10 min. Non-linear curve fitting and graph generation was performed using Graphpad Prism 8 software.
Components of the assay reaction buffer.
Component Stock concentration Volume per buffer Final reaction […]
Experiments were performed as described earlier with few modifications. In short, 3 replicates of intact HepG2 cells were treated with 30 µM UNC0638, UNC373 or corresponding volume of DMSO in medium-free experimental buffer for 60 min at 37 °C with end-over-end rotation. For lysates: Washed K562 cells were resuspended in medium-free experimental buffer and lysed by three freeze-thaw cycles. […]

T1 sequence (Q9UJT1 whole entry): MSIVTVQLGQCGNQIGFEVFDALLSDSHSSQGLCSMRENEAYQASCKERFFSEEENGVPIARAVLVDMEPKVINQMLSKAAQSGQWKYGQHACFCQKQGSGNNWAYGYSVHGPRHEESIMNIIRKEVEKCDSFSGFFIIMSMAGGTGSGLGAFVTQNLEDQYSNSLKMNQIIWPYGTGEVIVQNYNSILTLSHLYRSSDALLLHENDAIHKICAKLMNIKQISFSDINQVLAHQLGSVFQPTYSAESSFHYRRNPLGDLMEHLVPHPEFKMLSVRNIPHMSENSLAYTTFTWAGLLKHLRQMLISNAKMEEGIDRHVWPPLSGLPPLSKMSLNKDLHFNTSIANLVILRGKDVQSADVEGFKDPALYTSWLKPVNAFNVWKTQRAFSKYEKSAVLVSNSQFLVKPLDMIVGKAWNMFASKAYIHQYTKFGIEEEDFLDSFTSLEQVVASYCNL

Structure (SMILES)	FC vs DMSO (log2 competition), TUBD1 [1]	FC vs DMSO (log2 competition), PRCP [2]	competition for EHMT1 (GLP) binding to affinity matrix [3]	CHKA catalytic activity [4]
COc1cc2c(NC3CCN(C(C)C)CC3)nc(C3CCCCC3)nc2cc1OCCCN1CCCC1 [UNC0638]	-2.877	-2.542	strong enrichment and competition	suppressed CHKA catalytic activity
COc1cc2c(N(C)C3CCN(C(C)C)CC3)nc(C3CCCCC3)nc2cc1OCCCN1CCCC1 [UNC0737]	-0.7809	0.1604	did not ablate binding	suppressed CHKA catalytic activity
